The values below come from patent US20260297109A1, “COMPOUNDS AS SUMO ACTIVATING ENZYME INHIBITORS” (WIGEN BIOMEDICINE TECHNOLOGY (SHANGHAI) CO., LTD., priority 2022, published 2026).

The term pIC50 denotes the IC50 on a negative log10 scale, so that one unit is a factor of ten.

Each structure is given as a SMILES string. pIC50: −log10 of the molar value. A value given as a limit tells only on which side of the number the result lay.

The target of this test is T1, SAE (Homo sapiens, UniProt Q9UBT2).
T1 construct: endogenous in cells; host or cells: HCT116
T1 sequence (Q9UBT2 1-640): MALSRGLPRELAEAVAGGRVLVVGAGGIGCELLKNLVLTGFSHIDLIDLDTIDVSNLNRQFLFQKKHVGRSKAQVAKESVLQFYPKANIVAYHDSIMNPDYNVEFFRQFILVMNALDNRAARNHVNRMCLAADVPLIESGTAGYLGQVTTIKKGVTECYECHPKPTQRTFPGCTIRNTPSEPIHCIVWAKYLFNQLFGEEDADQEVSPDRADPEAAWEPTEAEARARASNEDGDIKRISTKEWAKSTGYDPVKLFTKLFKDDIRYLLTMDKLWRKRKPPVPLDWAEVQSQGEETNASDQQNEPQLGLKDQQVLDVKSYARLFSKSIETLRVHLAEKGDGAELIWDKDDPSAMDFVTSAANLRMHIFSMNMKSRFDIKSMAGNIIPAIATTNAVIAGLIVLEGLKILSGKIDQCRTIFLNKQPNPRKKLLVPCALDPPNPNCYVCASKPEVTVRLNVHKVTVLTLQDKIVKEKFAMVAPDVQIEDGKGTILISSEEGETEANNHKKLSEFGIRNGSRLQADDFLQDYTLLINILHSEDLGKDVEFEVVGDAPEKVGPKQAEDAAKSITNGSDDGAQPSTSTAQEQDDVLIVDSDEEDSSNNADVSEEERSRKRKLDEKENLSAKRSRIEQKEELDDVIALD
T1 sequence (Q9UBE0 1-346): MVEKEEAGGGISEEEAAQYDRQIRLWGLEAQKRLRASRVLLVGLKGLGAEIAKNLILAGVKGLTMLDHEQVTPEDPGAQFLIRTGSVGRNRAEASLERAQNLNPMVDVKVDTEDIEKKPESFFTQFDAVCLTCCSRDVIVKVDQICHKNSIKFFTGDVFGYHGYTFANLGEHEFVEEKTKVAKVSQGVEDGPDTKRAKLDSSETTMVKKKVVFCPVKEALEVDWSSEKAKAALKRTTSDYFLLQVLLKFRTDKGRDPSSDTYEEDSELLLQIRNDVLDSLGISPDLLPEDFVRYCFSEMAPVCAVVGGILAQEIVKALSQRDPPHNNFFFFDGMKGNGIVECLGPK
In words: SUMO IF: in vitro inhibitory activity assay against SAE in HCT116 cells (SUMO-2/3 immunofluorescence). Format: cell-based. The conditions noted are these: class symbols, 6 h at 37° C. How it is done: Biological Example 1. In Vitro Inhibitory Activity Assay of Compounds of the Present Disclosure Against SAE
HCT116 cells were seeded into a 96-well black transparent bottom plate at about 20000/well with 90 μL per well. The cells were incubated at 37° C. overnight for 24 h. The test compounds were 10-fold diluted to give a final concentration, and 10 μL of the diluted compounds was added to each well of the cell culture plate. The mixture was incubated at 37° C. for 6 h. The cells were then washed gently, the culture medium was discarded, and the cells were washed once with 200 μL of 0.1% PBST. 50 μL of 4% PFA was added to each well, and the cells were immobilized at room temperature for 20 min, and then washed with PBS 2-3 times. 50 μL of 0.2% Triton X-100 was added to each well, and the cells were left to stand at room temperature for 15 min and washed with 0.1% PBST 3 times. 100 μL of 3% BSA (0.6 g BSA+20 mL PBS) was added to each well, and the mixture was blocked at 37° C. for 30 min. After the blocking was completed, the liquid was removed and a primary antibody (SUMO-2/3 (18H8) Rabbit mAb, 1:400 dilution) was prepared with 1% BSA. 30 μL of the diluted primary antibody was added to each well, and the mixture was incubated at 4° C. overnight. The cells were washed 3 times with 200 μL of 0.1% PBST. A FITC secondary antibody (Fluorescein (FITC)-conjugated Affinipure Goat Anti-Rabbit IgG (H+L), 1:300 dilution) was further prepared with 1% BSA, and 40 μL of the diluted secondary antibody was added to each well. The mixture was incubated at room temperature in the dark for 2 h, and then the cells were washed 4 times with 0.1% PBST. The fluorescence signal of the sample was detected and compared to the DMSO group, and the inhibition rate and IC50 were calculated.
As for `NS(=O)(=O)OC[C@H]1[C@H](F)[C@@H](Nc2ncncc2C(=O)c2cc3c(s2)C(F)(F)CC32NCCc3ccc(Cl)cc32)C[C@@H]1O` (stereo partly shown) [Compound 327], the pIC50 is 6.70 to 7.30.

As to `NS(=O)(=O)OC[C@H]1[C@H](F)[C@@H](Nc2ncncc2C(=O)c2cc3c(s2)CCC[C@]32NCC3(CC3)c3ccc(Cl)cc32)C[C@@H]1O` [Compound 617], the pIC50 was no less than 7.30.

With `C=Cc1sc(C(=O)c2cncnc2N[C@H]2C[C@H](O)[C@@H](COS(N)(=O)=O)[C@@H]2F)cc1C1NCCc2ccc(Cl)cc21` (stereo partly shown) [Compound 261], the pIC50 is 6.70 to 7.30.

In the case of `COc1cc2c(cc1Cl)C1(CCCc3sc(C(=O)c4cncnc4N[C@H]4C[C@H](O)[C@@H](COS(N)(=O)=O)[C@@H]4F)cc31)NCC2` (stereo partly shown) [Compound 115], the pIC50 is 6.70 to 7.30.

Regarding `CN1Cc2sc(C(=O)c3cncnc3N[C@H]3C[C@H](O)[C@@H](COS(N)(=O)=O)[C@@H]3F)cc2C2(C1)OCCc1ccccc12` (stereo partly shown) [Compound 717], the pIC50 is 6.70 to 7.30.

As for `NS(=O)(=O)OC[C@H]1[C@H](F)[C@@H](Nc2ncncc2C(=O)c2cc3c(s2)CCC[C@@]32NC(=O)Cc3ccc(Cl)cc32)C[C@@H]1O` [Compound 628], the pIC50 is less than 6.70.

Turning to `NS(=O)(=O)OC[C@H]1[C@H](F)[C@@H](Nc2ncncc2C(=O)c2cc3c(s2)C(F)=C[C@]32NCCc3ccc(Cl)cc32)C[C@@H]1O` [Compound 323], the pIC50 is no less than 7.30.

As to `NS(=O)(=O)OC[C@H]1[C@H](F)[C@@H](Nc2ncncc2C(=O)c2cc3c(s2)COC[C@]32NCCc3ccc(Cl)c(Cl)c32)C[C@@H]1O` [Compound 560], the pIC50 is 6.70 to 7.30.

For `Cc1sc(C(=O)c2cncnc2N[C@H]2C[C@H](O)[C@@H](COS(N)(=O)=O)[C@@H]2F)cc1C1NCCc2ccc(C#N)cc21` (stereo partly shown) [Compound 238], the pIC50 was less than 6.70.

`N#Cc1ccc2c(c1)[C@@]1(CCc3sc(C(=O)c4cncnc4N[C@H]4C[C@H](O)[C@@H](COS(N)(=O)=O)[C@@H]4F)cc31)OCC2` [Compound 752]: the pIC50 is no less than 7.30.

In turn, `NS(=O)(=O)OC[C@H]1[C@H](F)[C@@H](Nc2ncncc2C(=O)c2cc3c(s2)COC[C@@]32NCCc3cc(Cl)c(Cl)cc32)C[C@@H]1O` [Compound 562] showed a pIC50 of less than 6.70.

Compound `NS(=O)(=O)OC[C@H]1[C@H](F)[C@@H](Nc2ncncc2C(=O)c2cc3c(s2)CSC[C@]32NCCc3ccc(F)cc32)C[C@@H]1O` [Compound 299] gave a negative-log IC50 (pIC50) of no less than 7.30.

As to `NS(=O)(=O)OC[C@H]1[C@H](F)[C@@H](Nc2ncncc2C(=O)c2cc(C3NCCc4ccc(Cl)cc43)c(C(F)(F)F)s2)C[C@@H]1O` (stereo partly shown) [Compound 268], the pIC50 is 6.70 to 7.30.

Take `NS(=O)(=O)OC[C@H]1[C@H](F)[C@@H](Nc2ncncc2C(=O)c2cc3c(s2)CCCC32NCCc3ccc(F)cc32)C[C@@H]1O` (stereo partly shown) [Compound 91]: the negative-log IC50 (pIC50) was 6.70 to 7.30.

For the compound `NS(=O)(=O)OC[C@H]1[C@H](F)[C@@H](Nc2ncncc2C(=O)c2cc3c(s2)COC[C@]32NCCc3cc(F)c(Cl)cc32)C[C@@H]1O` [Compound 572], the pIC50 is 6.70 to 7.30.

Compound `NS(=O)(=O)OC[C@H]1[C@H](F)[C@@H](Nc2ncncc2C(=O)c2cc3c(s2)CCC32NCCc3cc(F)c(Cl)c(F)c32)C[C@@H]1O` (stereo partly shown) [Compound 158] had a pIC50 of 6.70 to 7.30.

The compound `NS(=O)(=O)OC[C@H]1[C@H](F)[C@@H](Nc2ncncc2C(=O)c2cc3c(s2)CCC32OCCc3ccc(F)cc32)C[C@@H]1O` (stereo partly shown) [Compound 747] gave a pIC50 of 6.70 to 7.30.

On to `CN1Cc2sc(C(=O)c3cncnc3N[C@H]3C[C@H](O)[C@@H](COS(N)(=O)=O)[C@@H]3F)cc2[C@@]2(C1)OCCc1ccccc12` [Compound 718], for which the pIC50 was less than 6.70.

`COc1ccc2c(c1)[C@]1(CCCc3sc(C(=O)c4cncnc4N[C@H]4C[C@H](O)[C@@H](COS(N)(=O)=O)[C@@H]4F)cc31)NCC2` [Compound 643]: the pIC50 is less than 6.70.

For `NS(=O)(=O)OC[C@H]1[C@H](F)[C@@H](Nc2ncncc2C(=O)c2cc3c(s2)C(F)(F)C[C@@]32NCCc3ccc(Cl)cc32)C[C@@H]1O` [Compound 328], the pIC50 was less than 6.70.

In turn, `NS(=O)(=O)OC[C@H]1[C@H](F)[C@@H](Nc2ncncc2C(=O)c2cc3c(s2)CSC[C@@]32NCCc3ccccc32)C[C@@H]1O` [Compound 295] gave a pIC50 of less than 6.70.

For the compound `NS(=O)(=O)OC[C@H]1[C@H](F)[C@@H](Nc2ncncc2C(=O)c2cc3c(s2)C(F)(F)C[C@@]32NCCc3ccc(F)cc32)C[C@@H]1O` [Compound 625], the pIC50 is less than 6.70.

For the compound `N#Cc1ccc2c(c1)C1(CCc3sc(C(=O)c4cncnc4N[C@H]4C[C@H](O)[C@@H](COS(N)(=O)=O)[C@@H]4F)cc31)OCC2` (stereo partly shown) [Compound 750], the pIC50 is 6.70 to 7.30.

With `NS(=O)(=O)OC[C@H]1[C@H](F)[C@@H](Nc2ncncc2C(=O)c2cc3c(s2)CCCC32NCCc3ccc(Cl)nc32)C[C@@H]1O` (stereo partly shown) [Compound 600], the pIC50 was no less than 7.30.

Turning to `NS(=O)(=O)OC[C@H]1[C@H](F)[C@@H](Nc2ncncc2C(=O)c2cc3c(s2)CC2(CC2)CC32NCCc3ccc(Cl)cc32)C[C@@H]1O` (stereo partly shown) [Compound 615], the pIC50 is no less than 7.30.

`COc1ccc2c(c1)[C@@]1(CCc3sc(C(=O)c4cncnc4N[C@H]4C[C@H](O)[C@@H](COS(N)(=O)=O)[C@@H]4F)cc31)NCC2` [Compound 689]: the pIC50 is 6.70 to 7.30.

In turn, `NS(=O)(=O)OC[C@H]1[C@H](F)[C@@H](Nc2ncncc2C(=O)c2cc3c(s2)COC[C@@]32NCCc3cc(F)c(Cl)cc32)C[C@@H]1O` [Compound 571] gave a pIC50 of less than 6.70.

Take `CC1=CC2(NCCc3ccc(Cl)cc32)c2cc(C(=O)c3cncnc3N[C@H]3C[C@H](O)[C@@H](COS(N)(=O)=O)[C@@H]3F)sc21` (stereo partly shown) [Compound 324]: the pIC50 was 6.70 to 7.30.

`NS(=O)(=O)OC[C@H]1[C@H](F)[C@@H](Nc2ncncc2C(=O)c2cc3c(s2)CC[C@@]32OCCc3ccccc32)C[C@@H]1O` [Compound 745] showed a pIC50 of less than 6.70.

`NS(=O)(=O)OC[C@H]1[C@H](F)[C@@H](Nc2ncncc2C(=O)c2cc3c(s2)C=CC32NCCc3ccc(Cl)cc32)C[C@@H]1O` (stereo partly shown) [Compound 162] showed a pIC50 of no less than 7.30.

On to `N#Cc1cc2c(cc1Cl)C1(CCCc3sc(C(=O)c4cncnc4N[C@H]4C[C@H](O)[C@@H](COS(N)(=O)=O)[C@@H]4F)cc31)NCC2` (stereo partly shown) [Compound 114], for which the pIC50 was 6.70 to 7.30.

In turn, `NS(=O)(=O)OC[C@H]1[C@H](F)[C@@H](Nc2ncncc2C(=O)c2cc3c(s2)CSC[C@]32NCCc3ccccc32)C[C@@H]1O` [Compound 296] showed a pIC50 of 6.70 to 7.30.

Compound `NS(=O)(=O)OC[C@H]1[C@H](F)[C@@H](Nc2ncncc2C(=O)c2cc3c(s2)CCC[C@]32NCCc3cc(F)c(F)cc32)C[C@@H]1O` [Compound 670] had a pIC50 of no less than 7.30.

`C#Cc1sc(C(=O)c2cncnc2N[C@H]2C[C@H](O)[C@@H](COS(N)(=O)=O)[C@@H]2F)cc1C1NCCc2ccc(Cl)cc21` (stereo partly shown) [Compound 259] showed a negative logarithm of the IC50 (pIC50) of 6.70 to 7.30.

Consider `NS(=O)(=O)OC[C@H]1[C@H](F)[C@@H](Nc2ncncc2C(=O)c2cc3c(s2)C(F)=C[C@]32NCCc3ccc(F)cc32)C[C@@H]1O` [Compound 620], for which the negative-log IC50 (pIC50) was 6.70 to 7.30.

`CC(C)N1Cc2sc(C(=O)c3cncnc3N[C@H]3C[C@H](O)[C@@H](COS(N)(=O)=O)[C@@H]3F)cc2[C@]2(C1)OCCc1ccc(F)cc12` [Compound 734]: the pIC50 was no less than 7.30.

As for `Cc1ccc2c(c1)[C@@]1(CCCc3sc(C(=O)c4cncnc4N[C@H]4C[C@H](O)[C@@H](COS(N)(=O)=O)[C@@H]4F)cc31)NCC2` [Compound 666], the pIC50 is 6.70 to 7.30.
